The values that follow come from patent US20200323888A1, “INHIBITORS” (VESTLANDETS INNOVASJONSSELSKAP AS, priority 2017, published 2020).

The Ki is the dissociation constant of the complex between target and ligand, obtained from inhibition or displacement. Usually IC50 stands for the concentration at which inhibition is half-maximal. A lower IC50 goes with higher potency.

The target of assay [1] is T1, Naa80 (Homo sapiens, UniProt Q93015).
T1 construct: The PCR product containing the CDS was inserted into the TOPO TA vector; made in house; host or cells: E. coli BL21 Star (DE3)
T1 sequence (Q93015 1-308 isoform Q93015-2): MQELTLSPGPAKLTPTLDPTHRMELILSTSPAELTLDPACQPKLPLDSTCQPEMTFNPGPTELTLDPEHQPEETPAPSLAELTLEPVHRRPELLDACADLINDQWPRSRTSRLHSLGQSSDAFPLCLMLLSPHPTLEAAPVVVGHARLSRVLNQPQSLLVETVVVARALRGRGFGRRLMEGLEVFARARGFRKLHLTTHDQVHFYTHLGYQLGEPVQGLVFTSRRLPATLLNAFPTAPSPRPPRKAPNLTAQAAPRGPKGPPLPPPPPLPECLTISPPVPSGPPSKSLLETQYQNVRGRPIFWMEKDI
Nature of the assay: Naa80 substrate screening assay (peptide acetylation by purified Naa80). It counts as biochemical. The following applies: Naa80 mediated acetylation of 24-mer peptide substrates. From the text: In order to investigate the in vitro activity of Naa80 further, an enzyme activity screening assay on purified Naa80 was undertaken using a broad substrate library (including amino acids, nucleosides, coenzymes, amines, saccharides, vitamins, antioxidants and peptides) modified from Kuhn et al. (Kuhn et al. (2013) “Broad-substrate screen as a tool to identify substrates for bacterial Gcn5-related N-acetyltransferases with unknown substrate specificity”. Protein Science 22(2):222-230). Among all of the potential substrates tested, only the peptides with N-terminal sequence of MDEL24 (SEQ ID NO: 45), DDDI24 (SEQ ID NO: 41) and EEEI24 (SEQ ID NO: 40) were acetylated, as shown in the following table:
The 24-mer substrate peptides differed in their 7 N-terminal amino acids while the 17 C-terminal residues (RWGRPVGRRRRPVRVYP, SEQ ID NO: 39) were kept constant: EEEI24 (EEEIAAL, SEQ ID NO: 40), DDDI24 (DDDIAAL, SEQ ID NO: 41), MDDD24 (MDDDIAA, SEQ ID NO: 42), SESS24 (SESSSKS, SEQ ID NO: 43), AVFA24 (AVFADLD, SEQ ID NO: 44), MDEL24 (MDELFPL, SEQ ID NO: 45), MELL24 (MELLSPP, SEQ ID NO: 46), MLGT24 (MLGTGPA, SEQ ID NO: 47), MTNK24 (MTNKSSL, SEQ ID NO: 48), MLGP24 (MLGPEGG, SEQ ID NO: 49), MAPL24 (MAPLDLD, SEQ ID NO: 50), MKKS24 (MKKSYSG, SEQ ID NO: 51).
Both MDEL (p65, SEQ ID NO: 8) and MDDD24 (unprocessed β-actin, SEQ ID NO: 42) represent cellular NatB substrates.

In assay [2] the target is T1, Naa80. Described as above. It counts as biochemical. The following applies: linear range of enzyme concentration.
The target of assay [3] is T2, NatA (Homo sapiens, UniProt P41227).
T2 construct: endogenous in cells
T2 sequence (P41227 1-235): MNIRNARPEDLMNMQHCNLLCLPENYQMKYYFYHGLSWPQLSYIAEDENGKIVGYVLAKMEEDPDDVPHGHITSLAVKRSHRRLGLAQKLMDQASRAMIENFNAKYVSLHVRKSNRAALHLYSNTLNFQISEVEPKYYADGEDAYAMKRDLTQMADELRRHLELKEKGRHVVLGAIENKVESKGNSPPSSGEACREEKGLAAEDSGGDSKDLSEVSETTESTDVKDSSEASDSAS
T2 sequence (Q9BXJ9 1-866 partner): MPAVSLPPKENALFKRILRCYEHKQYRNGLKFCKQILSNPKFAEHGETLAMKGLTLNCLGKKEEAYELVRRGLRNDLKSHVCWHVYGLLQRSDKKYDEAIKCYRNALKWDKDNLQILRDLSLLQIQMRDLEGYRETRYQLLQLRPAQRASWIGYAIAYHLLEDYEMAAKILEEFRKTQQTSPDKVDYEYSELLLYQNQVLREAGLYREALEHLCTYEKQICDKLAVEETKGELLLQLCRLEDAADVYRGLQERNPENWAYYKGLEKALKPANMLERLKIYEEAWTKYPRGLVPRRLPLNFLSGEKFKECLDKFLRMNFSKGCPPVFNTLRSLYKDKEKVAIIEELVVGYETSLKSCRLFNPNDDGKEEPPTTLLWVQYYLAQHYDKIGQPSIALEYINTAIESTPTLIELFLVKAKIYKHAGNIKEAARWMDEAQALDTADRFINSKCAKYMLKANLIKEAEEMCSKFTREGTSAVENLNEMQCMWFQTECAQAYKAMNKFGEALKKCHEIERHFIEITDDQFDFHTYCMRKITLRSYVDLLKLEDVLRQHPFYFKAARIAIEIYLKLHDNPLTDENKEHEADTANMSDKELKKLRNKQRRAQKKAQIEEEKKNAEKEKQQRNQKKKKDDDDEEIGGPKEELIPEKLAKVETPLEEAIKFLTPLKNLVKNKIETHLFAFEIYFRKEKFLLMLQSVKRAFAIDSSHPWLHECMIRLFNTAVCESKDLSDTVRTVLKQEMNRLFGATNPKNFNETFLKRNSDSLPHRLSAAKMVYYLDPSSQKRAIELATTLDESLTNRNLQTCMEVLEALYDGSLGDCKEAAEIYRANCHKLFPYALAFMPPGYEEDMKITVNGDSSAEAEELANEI
Nature of the assay: Nt-acetylation inhibitor assay, immunoprecipitated NatA complex, HPLC quantification. It counts as biochemical. The procedure: The IC50 values for these compounds were tested as described in Foyn H, et al. (2013) “Design, Synthesis, and Kinetic Characterization of Protein N-Terminal Acetyltransferase Inhibitors”. ACS Chem Biol 8:1121-1127; and Foyn H, et al. (2017) “DTNB-Based quantification of in vitro enzymatic N-terminal acetyltransferase activity”, Methods Mol. Biol. 1574:9-15. Briefly, a colorimetric acetylation assay, 5,5′-dithiobis-(2-nitrobenzoic acid) (DTNB) assay was used to measure the catalytic activity of NATs after incubation with NAT inhibitors. In the DTNB assay, thiols present in the enzymatic product, CoA, cleaves DTNB and produces 2-nitro-5-thiobenzoate (NTB-), which absorbs light with a wavelength of 412 nm. NTB- forms in a 1:1 molar ratio to the thiol groups present in the sample. Therefore, NTB- was quantified by measuring the absorbance at 412 nm and indirectly measures peptide Nt-acetylation. Recombinant purified NAT enzyme was mixed with different substrate peptides (300 uM, custom-made) and Ac-CoA (300 uM) in acetylation buffer (50 mM Tris/HEPES pH 8.5-7.4, 100 mM NaCl, 10% glycerol and 0.2 mM EDTA) and with inhibitor concentration (0-500 uM). After 30 min-60 min incubation at 37° C., the enzyme activity was quenched with quenching buffer (3.2 M guanidinium-HCl, 100 mM sodium phosphate dibasic pH 6.8). Triplicates were run for all positive samples, while negative controls were duplicated. As a negative control, reactions without enzyme were incubated at 37° C. before the reaction was quenched and added enzyme. In order to measure CoA production, 2 mM DTNB (dissolved in 100 mM sodium phosphate dibasic pH 6.8 and 10 mM EDTA) was added to the quenched reaction and the absorbance at 412 nm was measured with a spectrophotometer (Epoc). Background absorbance (determined in negative controls) was subtracted from the absorbance determined in each individual reaction. Thiophenolate production was quantified assuming ε=13.7×103 M−1 cm−1. […] A similar Nt-acetylation reaction was performed as previously described and the enzymatic activity was quenched with a final concentration of 1% TFA and analyzed by HPLC (Evjenth R, Van Damme P, Gevaert K, Arnesen T (2013) HPLC-based Quantification of in vitro N-terminal Acetylation. Methods Mol Biol 981:95-102.).
In order to ensure selectivity towards NatA, the CoA-Ac-SSNIeP (SEQ ID NO: 4) was tested against other NATs. Using the Cheng-Prusoff equation for competitive inhibitors, the dissociation constant, Ki, was calculated from IC50 values and [S]/Km ratios for all the NATs.

In assay [4] the target is T3, Naa10 (Homo sapiens, UniProt P41227).
T3 sequence (P41227 1-235): T2 sequence (P41227 1-235)
Nature of the assay: Nt-acetylation inhibitor assay (DTNB), Naa10. It counts as biochemical. The note with it: Naa10; calculated from IC50 with Cheng-Prusoff equation. As to the method:
(§1) The IC50 values for these compounds were tested as described in Foyn H, et al. (2013) “Design, Synthesis, and Kinetic Characterization of Protein N-Terminal Acetyltransferase Inhibitors”. ACS Chem Biol 8:1121-1127; and Foyn H, et al. (2017) “DTNB-Based quantification of in vitro enzymatic N-terminal acetyltransferase activity”, Methods Mol. Biol. 1574:9-15. Briefly, a colorimetric acetylation assay, 5,5′-dithiobis-(2-nitrobenzoic acid) (DTNB) assay was used to measure the catalytic activity of NATs after incubation with NAT inhibitors. […] Therefore, NTB- was quantified by measuring the absorbance at 412 nm and indirectly measures peptide Nt-acetylation. […] In order to measure CoA production, 2 mM DTNB (dissolved in 100 mM sodium phosphate dibasic pH 6.8 and 10 mM EDTA) was added to the quenched reaction and the absorbance at 412 nm was measured with a spectrophotometer (Epoc). Background absorbance (determined in negative controls) was subtracted from the absorbance determined in each individual reaction. Thiophenolate production was quantified assuming ε=13.7×103 M−1 cm−1. […] A similar Nt-acetylation reaction was performed as previously described and the enzymatic activity was quenched with a final concentration of 1% TFA and analyzed by HPLC (Evjenth R, Van Damme P, Gevaert K, Arnesen T (2013) HPLC-based Quantification of in vitro N-terminal Acetylation. Methods Mol Biol 981:95-102.). […]

Assay [5] concerns the target T4, Naa30 (Homo sapiens, UniProt Q147X3).
T4 sequence (Q147X3 1-362): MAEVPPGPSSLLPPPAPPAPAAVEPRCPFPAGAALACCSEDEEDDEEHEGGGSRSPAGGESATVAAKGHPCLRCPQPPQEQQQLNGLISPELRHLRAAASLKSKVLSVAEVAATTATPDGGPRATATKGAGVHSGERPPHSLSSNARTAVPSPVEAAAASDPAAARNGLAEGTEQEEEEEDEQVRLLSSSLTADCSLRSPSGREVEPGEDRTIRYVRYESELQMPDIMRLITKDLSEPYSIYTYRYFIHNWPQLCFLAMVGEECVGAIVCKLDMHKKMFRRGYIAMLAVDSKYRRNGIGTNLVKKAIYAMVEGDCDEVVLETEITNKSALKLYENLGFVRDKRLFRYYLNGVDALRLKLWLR
Nature of the assay: Nt-acetylation inhibitor assay (DTNB), Naa30. It counts as biochemical. The note with it: calculated from IC50 with Cheng-Prusoff equation. As to the method: as §1

For assay [6], the target named is Naa40 (Homo sapiens, UniProt Q86UY6). Nature of the assay: Nt-acetylation inhibitor assay (DTNB), Naa40. It counts as biochemical. The note with it: calculated from IC50 with Cheng-Prusoff equation. As to the method:
as §1

Assay [7] concerns the target T5, Naa50 (Homo sapiens, UniProt Q9GZZ1).
T5 sequence (Q9GZZ1 1-169): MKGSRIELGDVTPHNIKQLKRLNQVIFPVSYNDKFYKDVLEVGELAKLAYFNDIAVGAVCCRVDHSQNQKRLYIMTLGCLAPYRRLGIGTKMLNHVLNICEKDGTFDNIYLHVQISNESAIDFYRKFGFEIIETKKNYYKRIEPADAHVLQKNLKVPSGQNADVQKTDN
Nature of the assay: Nt-acetylation inhibitor assay (DTNB), Naa50. The note with it: calculated from IC50 with Cheng-Prusoff equation. It counts as biochemical. The procedure:
as §1

For assay [8], the target named is Naa60 (Homo sapiens, UniProt Q9H7X0). Put plainly: Nt-acetylation inhibitor assay (DTNB), Naa60. It counts as biochemical. The note with it: calculated from IC50 with Cheng-Prusoff equation. As to the method:
as §1

For assay [9], the system named is zebrafish embryos. Nature of the assay: Phenotype after injection into zebrafish embryos. It counts as in vivo. The following applies: injected into zebrafish embryos; compared with reference inhibitor. From the text:
A norleucine (Nle) residue was therefore tried in place of methionine in order to try to circumvent the synthesis problem.

The target of assay [10] is NatB (Homo sapiens, UniProt P61599). Put plainly: Nt-acetylation inhibitor assay, immunoprecipitated NatB complex, HPLC quantification. On the set-up: endogenous in cells. The note with it: calculated from IC50 with Cheng-Prusoff equation. It counts as biochemical. As to the method:
as §1

Sequence of NatB (P61599 whole entry): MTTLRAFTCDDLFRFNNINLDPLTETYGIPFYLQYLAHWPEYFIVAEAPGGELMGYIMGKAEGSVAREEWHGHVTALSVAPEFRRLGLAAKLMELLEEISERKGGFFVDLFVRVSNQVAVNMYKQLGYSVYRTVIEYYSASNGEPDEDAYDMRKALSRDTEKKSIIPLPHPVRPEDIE
Sequence of NatB (Q14CX7 whole entry partner): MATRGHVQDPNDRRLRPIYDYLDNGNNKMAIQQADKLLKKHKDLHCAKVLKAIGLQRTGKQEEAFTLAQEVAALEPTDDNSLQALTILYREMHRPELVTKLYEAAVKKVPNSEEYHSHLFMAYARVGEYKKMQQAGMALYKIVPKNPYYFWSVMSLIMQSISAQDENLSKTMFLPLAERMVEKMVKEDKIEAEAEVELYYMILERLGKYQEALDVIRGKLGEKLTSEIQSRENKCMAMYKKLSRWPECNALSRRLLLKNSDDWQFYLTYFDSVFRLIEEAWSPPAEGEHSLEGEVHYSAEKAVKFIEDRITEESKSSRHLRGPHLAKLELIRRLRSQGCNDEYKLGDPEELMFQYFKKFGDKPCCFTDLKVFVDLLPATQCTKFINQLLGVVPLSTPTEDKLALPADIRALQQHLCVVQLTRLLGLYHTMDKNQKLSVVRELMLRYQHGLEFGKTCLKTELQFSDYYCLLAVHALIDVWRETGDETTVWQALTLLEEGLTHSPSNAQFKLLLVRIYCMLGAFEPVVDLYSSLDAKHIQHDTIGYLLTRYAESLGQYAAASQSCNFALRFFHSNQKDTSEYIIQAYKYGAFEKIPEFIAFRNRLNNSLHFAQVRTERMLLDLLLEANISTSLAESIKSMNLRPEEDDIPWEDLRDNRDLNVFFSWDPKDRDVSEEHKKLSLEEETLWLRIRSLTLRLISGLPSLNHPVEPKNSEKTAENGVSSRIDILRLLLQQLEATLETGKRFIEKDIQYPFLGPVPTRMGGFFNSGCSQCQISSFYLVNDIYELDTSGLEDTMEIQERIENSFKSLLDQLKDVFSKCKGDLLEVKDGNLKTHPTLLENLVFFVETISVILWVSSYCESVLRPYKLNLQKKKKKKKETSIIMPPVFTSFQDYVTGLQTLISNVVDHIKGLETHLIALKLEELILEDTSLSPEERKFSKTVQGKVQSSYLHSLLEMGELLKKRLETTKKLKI
Sequence of Naa60 (Q9H7X0 whole entry, looked up): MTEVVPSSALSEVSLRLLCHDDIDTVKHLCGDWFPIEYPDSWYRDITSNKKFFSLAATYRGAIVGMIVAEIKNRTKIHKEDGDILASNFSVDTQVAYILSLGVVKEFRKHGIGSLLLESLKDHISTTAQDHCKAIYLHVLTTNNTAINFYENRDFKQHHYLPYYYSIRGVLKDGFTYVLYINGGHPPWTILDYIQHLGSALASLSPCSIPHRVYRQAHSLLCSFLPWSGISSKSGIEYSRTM

For “MDEL24: 24-mer substrate peptide: N-terminal MDELFPL (SEQ ID NO: 45) plus constant RWGRPVGRRRRPVRVYP (MDELFPLRWGRPVGRRRRPVRVYP)”, in assay [1], the Product formation is given as 119 (±5.61) μM. In addition, the “higher product formation compared to second best substrate MDDD24” value in assay [2] is 5 fold.

For `CCCC[C@H](NC(=O)[C@H](CO)NC(=O)[C@H](CO)NC(=O)CSCCNC(=O)CCNC(=O)C(O)C(C)(C)COP(=O)(O)OP(=O)(O)OCC1OC(n2cnc3c(N)ncnc32)C(O)C1OP(=O)(O)O)C(=O)N1CCC[C@H]1C(N)=O` (stereo partly drawn) [CoA-Ac-SS(Nle)P], the Ki in [3] (NatA, calculated from IC50 with Cheng-Prusoff equation) was 0.143 ± 0.03 µM; in assay [4], 98.9 µM; in assay [5], 132 µM; in [6], 41.9 ± 6.4 µM; in [7], 17.7 ± 7.4 µM; in assay [8], 3.1 ± 0.8 µM. Also, the Ki in assay [10] was 41.6 ± 51.2 µM. Further, the IC50 in assay [3] (inhibitors tested against NatA, all compounds with C-terminal amide) worked out at 1.46 ± 0.29 µM. The “more potent towards NatA than all the other NATs tested” value in [3] (selectivity from Ki values of Table 2) was “at least 100 fold”. Further, the phenotype in zebrafish entry in assay [9] was “same phenotype in zebrafish as SSMP”.
